{
  "source": "patent US8865734B2",
  "about": "(priority 2010, dated 2014)",
  "key": {"[1]": {"system": "Mycobacterium tuberculosis H37Rv", "assay": "Kinetics of inhibition and bactericidal activity (CFU plating)", "assay_type": "cell-based", "conditions": "for colony forming unit (CFU) number (bactericidal activity): after incubation with various concentrations; for growth inhibition: reached around the same time as PA-824, 14 day period", "description": "Mycobacterium tuberculosis H37Rv was incubated at an initial inoculum of 2×10^6 bacteria/ml in Middlebrook 7H9 media containing an increasing concentration of representative compound 47 or 54. Culture samples were collected over a 14 day period. Serial dilutions of the bacterial suspension were performed and plated on 7H 10 medium. Colonies were counted for the different dilutions after 3 weeks incubation at 37° C. under 5% CO2 and compared to that obtained for the DMSO negative and PA-824 positive controls. PA-824 (Stover et al., 2000) is a TB Alliance small chemical compound currently in phase II clinical trials for the treatment of tuberculosis. PA-824 possibly acts via generation of radicals having non-specific toxic effects."}, "[2]": {"system": "in vitro grown Mycobacteria (M. tuberculosis)", "assay": "QUM: Quantification of in vitro grown Mycobacteria (in vitro growth fluorescence assay)", "assay_type": "cell-based", "conditions": "Mycobacterium tuberculosis; MIC, 80% bacterial growth inhibition; in vitro growth; read-out: QUM", "outline": "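Mycobacterium tuberculosis grown in vitro was quantified by fluorescence across compound dose responses. MIC is defined as the minimum concentration producing 80% growth inhibition.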"}, "[3]": {"system": "M. tuberculosis inside the host macrophage", "assay": "QIM: Quantification of Intracellular Mycobacteria (intracellular growth assay, phenotypic cell-based)", "conditions": "Mycobacterium tuberculosis; MIC, 80% bacterial growth inhibition; intracellular growth; read-out: QIM", "outline": "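Phenotypic high-content assay measuring M. tuberculosis multiplication inside host macrophages, run as dose response. MIC is the minimum compound concentration giving 80% bacterial growth inhibition.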"}, "[4]": {"system": "M. tuberculosis drug sensitive strain (lab strain H37Rv)", "assay": "MIC by the Alamar blue method, drug sensitive strain", "assay_type": "cell-based", "conditions": "Mycobacterium tuberculosis"}, "M. tuberculosis H37Rv": {"system": "M. tuberculosis H37Rv", "assay": "In vivo activity in a murine model of acute tuberculosis infection", "set-up": "species or system BalbC mice", "conditions": "4 weeks of treatment", "description": "The effect of compounds 177 and 185 on the bacterial load of TB-infected mice was compared to that of the reference compound Isoniazid (INH). 8-week old female BalbC mice were infected with 6×10^5 M. tuberculosis H37Rv via intranasal instillation. Mice were sacrificed at day 1 to control the number of CFU in the lungs. In the acute model of infection, mice were treated for 4 weeks, starting at day 1. Compounds were freshly dissolved in a 0.5% methylcellulose solution and administered by oral gavage 5 times/week. Bacterial load was assessed in lungs and spleen after homogenizing the organs in 1×PBS. Serial dilutions of organs homogenates were spread on Middlebrook 7H11 plates and CFU were determined after 3 weeks incubation at 37° C. under 5% CO2."}},
  "note": "Structures can show the parent of a compound that is named as a salt.",
  "data": [
    {"smiles": "CCc1nc2ccccn2c1C(=O)NCc1ccc(Oc2ccccc2)cc1", "note": "[Compound 54, 2-Ethyl-N-(4-phenoxybenzyl)imidazo[1,2-a]pyridine-3-carboxamide]", "values": [
      {"measurement": "colony forming unit (CFU) number (bactericidal activity)", "setting": "[1]", "result": "decrease"},
      {"measurement": "growth inhibition", "setting": "[1]", "result": 100, "unit": "%"},
      {"measurement": "MIC", "setting": "[2]", "result": "< 1", "unit": "µM"},
      {"measurement": "MIC", "setting": "[3]", "result": "< 1", "unit": "µM"},
      {"measurement": "MIC80", "setting": "[4]", "result": 0.625, "unit": "µM"}
    ]},
    {"smiles": "CCc1nc2cc(Cl)ccn2c1C(=O)NCc1ccc(N2CCN(c3ccc(F)cc3)CC2)cc1", "note": "[Compound 177, 7-Chloro-2-ethyl-N-(4-(4-(4-fluorophenyl)piperazin-1-yl)benzyl)imidazo[1,2-a]pyridine-3-carboxamide trihydrochloride]", "values": [
      {"measurement": "CFU in the spleen", "setting": "M. tuberculosis H37Rv; 50 mg/kg orally", "result": "No CFU were detected"},
      {"measurement": "reduction of CFU in the lungs compared to untreated mice", "setting": "M. tuberculosis H37Rv; 50 mg/kg orally", "result": "~2", "unit": "log CFU"}
    ]},
    {"smiles": "CCc1nc2ccccn2c1C(=O)NCc1ccc(-c2ccccc2)cc1", "note": "[Compound 47, N-(Biphenyl-4-ylmethyl)-2-ethylimidazo[1,2-a]pyridine-3-carboxamide]", "values": [
      {"measurement": "colony forming unit (CFU) number (bactericidal activity)", "setting": "[1]", "result": "decrease"},
      {"measurement": "growth inhibition", "setting": "[1]", "result": 100, "unit": "%"},
      {"measurement": "MIC", "setting": "[2]", "result": "< 1", "unit": "µM"},
      {"measurement": "MIC", "setting": "[3]", "result": "< 1", "unit": "µM"},
      {"measurement": "MIC80", "setting": "[4]", "result": 1.25, "unit": "µM"}
    ]},
    {"smiles": "COc1c(N2C[C@@H]3CCCN[C@@H]3C2)c(F)cc2c(=O)c(C(=O)O)cn(C3CC3)c12", "note": "[MFX, moxifloxacin, reference compound]", "values": [
      {"measurement": "MIC80", "setting": "[4]", "result": 1.25, "unit": "µM"}
    ]},
    {"smiles": "CCc1nc2ccc(Cl)cn2c1C(=O)NCc1ccc(Oc2ccc(OC(F)(F)F)cc2)cc1", "note": "[Compound 185, 6-Chloro-2-ethyl-N-(4-(4-(trifluoromethoxy)phenoxy)benzyl)imidazo[1,2-a]pyridine-3-carboxamide]", "values": [
      {"measurement": "CFU in the spleen", "setting": "M. tuberculosis H37Rv; 50 mg/kg orally", "result": "No CFU were detected"},
      {"measurement": "reduction of CFU in the lungs compared to untreated mice", "setting": "M. tuberculosis H37Rv; 50 mg/kg orally", "result": "~2", "unit": "log CFU"},
      {"measurement": "MIC", "setting": "[2]", "result": "< 1", "unit": "µM"},
      {"measurement": "MIC", "setting": "[3]", "result": "< 1", "unit": "µM"}
    ]},
    {"smiles": "NNC(=O)c1ccncc1", "note": "[INH, Isoniazid, reference compound]", "values": [
      {"measurement": "CFU in the lungs", "setting": "M. tuberculosis H37Rv; 25 mg/kg", "result": "No CFU were recovered"},
      {"measurement": "CFU in the spleen", "setting": "M. tuberculosis H37Rv; 25 mg/kg", "result": "No CFU were recovered"},
      {"measurement": "MIC80", "setting": "[4]", "result": 1.25, "unit": "µM"}
    ]},
    {"smiles": "CCc1nc2cc(-c3cccnc3)ccn2c1C(=O)NCc1ccc(N2CCOCC2)cc1", "note": "[Compound 326, 2-Ethyl-N-(4-morpholinobenzyl)-7-(pyridin-3-yl)imidazo[1,2-a]pyridine-3-carboxamide]", "values": [
      {"measurement": "melting point", "result": 208.5, "unit": "°C"},
      {"measurement": "MIC", "setting": "[2]", "result": "> 20", "unit": "µM"},
      {"measurement": "MIC", "setting": "[3]", "result": "> 20", "unit": "µM"}
    ]},
    {"smiles": "CCc1nc2cc(Cl)ccn2c1C(=O)NCc1ccc(N2C=CC(=O)CC2)cc1", "note": "[Compound 270, 7-Chloro-2-ethyl-N-(4-(4-oxo-3,4-dihydropyridin-1(2H)-yl)benzyl)imidazo[1,2-a]pyridine-3-carboxamide]", "values": [
      {"measurement": "melting point", "result": "201.3 to 202.8", "unit": "°C"},
      {"measurement": "MIC", "setting": "[2]", "result": "> 20", "unit": "µM"},
      {"measurement": "MIC", "setting": "[3]", "result": "> 20", "unit": "µM"}
    ]},
    {"smiles": "CCc1nc2cc(Cl)ccn2c1C(=O)NCc1ccc(N2CC(C)CC(C)C2)cc1", "note": "(centres unmarked) [Compound 217, 7-Chloro-N-(4-(3,5-dimethylpiperidin-1-yl)benzyl)-2-ethylimidazo[1,2-a]pyridine-3-carboxamide]", "values": [
      {"measurement": "melting point", "result": "181.5 to 182.8", "unit": "°C"},
      {"measurement": "MIC", "setting": "[2]", "result": "< 1", "unit": "µM"},
      {"measurement": "MIC", "setting": "[3]", "result": "< 1", "unit": "µM"}
    ]},
    {"smiles": "CCc1nc2ccc(Cl)cn2c1C(=O)NCc1ccc(N2CCCC2)cc1", "note": "[Compound 211, 6-Chloro-2-ethyl-N-(4-(pyrrolidin-1-yl)benzyl)imidazo[1,2-a]pyridine-3-carboxamide]", "values": [
      {"measurement": "melting point", "result": "222 to 223", "unit": "°C"},
      {"measurement": "MIC", "setting": "[2]", "result": "< 1", "unit": "µM"},
      {"measurement": "MIC", "setting": "[3]", "result": "< 1", "unit": "µM"}
    ]},
    {"smiles": "CCc1nc2ccc(Cl)cn2c1C(=O)NC1CCN(Cc2ccc(OC(F)(F)F)cc2)CC1", "note": "[Compound 229, 6-Chloro-2-ethyl-N-(1-(4-(trifluoromethoxy)benzyl)piperidin-4-yl)imidazo[1,2-a]pyridine-3-carboxamide]", "values": [
      {"measurement": "melting point", "result": "157 to 158", "unit": "°C"},
      {"measurement": "MIC", "setting": "[2]", "result": "> 20", "unit": "µM"},
      {"measurement": "MIC", "setting": "[3]", "result": "> 20", "unit": "µM"}
    ]}
  ]
}
